Target: T1, CDK2/Cyclin E1 (Homo sapiens, UniProt P24941)
T1 construct: enzyme activity assays utilize full-length human CDK2; GST (N); purchased Carna 04-165; host or cells: baculovirus expression system
Assay: CDK2/Cyclin E1 HTRF enzyme activity assay
Type: biochemical
Settings: 1 mM ATP
Description: Example A. CDK2/Cyclin E1 HTRF Enzyme Activity Assay
CDK2/Cyclin E1 enzyme activity assays utilize full-length human CDK2 co-expressed as N-terminal GST-tagged protein with FLAG-Cyclin E1 in a baculovirus expression system (Carna Product Number 04-165). Assays were conducted in white 384-well polystyrene plates in a final reaction volume of 8 μL. CDK2/Cyclin E1 (0.25 nM) was incubated with the compounds of the Examples (40 nL serially diluted in DMSO) in the presence of ATP (50 μM or 1 mM) and 50 nM ULight™-labeled eIF4E-binding protein 1 (THR37/46) peptide (PerkinElmer) in assay buffer (containing 50 mM HEPES pH 7.5, 1 mM EGTA, 10 mM MgCl2, 2 mM DTT, 0.05 mg/mL BSA, and 0.01% Tween 20) for 60 minutes at room temperature. The reactions were stopped by the addition of EDTA and Europium-labeled anti-phospho-4E-BP1 antibody (PerkinElmer), for a final concentration of 15 mM and 1.5 nM, respectively. HTRF signals were read after 1 hour at room temperature on a PHERAstar FS plate reader (BMG Labtech). Data was analyzed with IDBS XLFit and GraphPad Prism 5.0 software using a three or four parameter dose response curve to determine IC50 for each compound.

| Structure (SMILES) | IC50 |
| --- | --- |
| C[C@@H]1CN(S(C)(=O)=O)CC[C@@H]1Nc1nc2c(OC3CCC3)c(-c3cn[nH]c3)ncn2n1 [Example 1, 8-Cyclobutoxy-N-((3R,4S)-3-methyl-1-(methylsulfonyl)piperidin-4-yl)-7-(1H-pyrazol-4-yl)-[1,2,4]triazolo[1,5-c]pyrimidin-2-amine] | ≤ 0.01 µM |
| C[C@@H]1CN(S(C)(=O)=O)CC[C@@H]1Nc1nc2c(OCC(F)(F)F)c(-c3cn[nH]c3)ncn2n1 [Example 2, N-((3R,4S)-3-Methyl-1-(methylsulfonyl)piperidin-4-yl)-7-(1H-pyrazol-4-yl)-8-(2,2,2-trifluoroethoxy)-[1,2,4]triazolo[1,5-c]pyrimidin-2-amine] | ≤ 0.01 µM |
| C[C@@H]1CN(S(C)(=O)=O)CC[C@@H]1Nc1nc2cnc(-c3cn[nH]c3)c(OCC(F)(F)F)n2n1 [Example 3, N-((3R,4S)-3-Methyl-1-(methylsulfonyl)piperidin-4-yl)-6-(1H-pyrazol-4-yl)-5-(2,2,2-trifluoroethoxy)-[1,2,4]triazolo[1,5-a]pyrazin-2-amine] | ≤ 0.01 µM |

— US20220340579A1, “PYRAZOLYL BICYCLIC AMINES AS CDK2 INHIBITORS” (Incyte Corporation, priority 2021, published 2022)
